In PubChem BioAssay AID256 (DTP/NCI, 2004):
Where “and” joins values, the source holds several entries; their conditions need not be identical. Equal values may be shown once. Toxic doses and inconclusive results are not listed. Rule for the calls: active = survival T/C of 150% or more; inactive = T/C below 125% in these data.

System: CD2F1 mice, L1210 leukemia ip, survival T/C
Assay: NCI In Vivo Anticancer Drug Screen. Data for tumor model L1210 Leukemia (intraperitoneal) in CD2F1 (CDF1) mice
Settings: higher = longer survival
How it was run: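 In this screen, transplantable tumors were grown in mice given either the compound or its vehicle. Results were expressed as the treated measurement relative to the control measurement.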

Measured: T/C

COc1cccc2c1C(=O)c1c(O)c3c(c(O)c1C2=O)C[C@@](O)(C(C)=O)C[C@@H]3OC1CC(N)C(O)C(C)O1 (some centres undefined)
inactive: endpoint: mean survival time, dose: 0.06 mg/kg/injection, schedule: Q01DX009 (ip), vehicle: saline 103 % of control | endpoint: mean survival time, dose: 0.13 mg/kg/injection, schedule: Q01DX009 (ip), vehicle: saline 103 % of control | endpoint: mean survival time, dose: 0.2 mg/kg/injection, schedule: Q01DX009 (ip), vehicle: saline 105 % of control | endpoint: mean survival time, dose: 0.2 mg/kg/injection, schedule: Q01DX009 (ip), vehicle: water 100 % of control and 103 % of control and 108 % of control | endpoint: mean survival time, dose: 0.25 mg/kg/injection, schedule: Q01DX005 (ip), vehicle: water 101 % of control | endpoint: mean survival time, dose: 0.25 mg/kg/injection, schedule: Q01DX009 (ip), vehicle: saline 113 % of control and 120 % of control and 105 % of control | endpoint: mean survival time, dose: 0.39 mg/kg/injection, schedule: Q01DX009 (ip), vehicle: saline 119 % of control and 106 % of control | endpoint: mean survival time, dose: 0.39 mg/kg/injection, schedule: Q01DX009 (ip), vehicle: water 101 % of control and 110 % of control and 112 % of control | endpoint: mean survival time, dose: 0.5 mg/kg/injection, schedule: Q01DX005 (ip), vehicle: water 117 % of control and 108 % of control and 110 % of control | endpoint: mean survival time, dose: 0.5 mg/kg/injection, schedule: Q04DX003 (ip), vehicle: water 116 % of control and 98 % of control | endpoint: mean survival time, dose: 0.78 mg/kg/injection, schedule: Q01DX009 (ip), vehicle: saline 116 % of control | endpoint: mean survival time, dose: 0.78 mg/kg/injection, schedule: Q01DX009 (ip), vehicle: water 117 % of control and 120 % of control and 103 % of control | endpoint: mean survival time, dose: 1.0 mg/kg/injection, schedule: Q01DX005 (ip), vehicle: water 118 % of control and 112 % of control | endpoint: mean survival time, dose: 1.0 mg/kg/injection, schedule: Q03DX003 (ip), vehicle: saline 119 % of control | endpoint: mean survival time, dose: 1.0 mg/kg/injection, schedule: Q04DX003 (ip), vehicle: water 105 % of control | endpoint: mean survival time, dose: 1.08 mg/kg/injection, schedule: Q04DX003 (ip), vehicle: saline 120 % of control | endpoint: mean survival time, dose: 1.25 mg/kg/injection, schedule: Q07DX Z (oral), vehicle: clinical formulation 97 % of control | endpoint: mean survival time, dose: 1.25 mg/kg/injection, schedule: Q#B X Z (oral), vehicle: clinical formulation 102 % of control | endpoint: mean survival time, dose: 1.56 mg/kg/injection, schedule: Q01DX009 (ip), vehicle: saline 117 % of control | endpoint: mean survival time, dose: 1.56 mg/kg/injection, schedule: Q01DX009 (ip), vehicle: water 121 % of control and 106 % of control | endpoint: mean survival time, dose: 1.68 mg/kg/injection, schedule: Q01DX001 (ip), vehicle: water 124 % of control | endpoint: mean survival time, dose: 1.8 mg/kg/injection, schedule: Q04DX003 (ip), vehicle: saline 120 % of control | endpoint: mean survival time, dose: 2.0 mg/kg/injection, schedule: Q01DX005 (ip), vehicle: water 121 % of control and 124 % of control | endpoint: mean survival time, dose: 2.0 mg/kg/injection, schedule: Q03DX003 (ip), vehicle: saline 122 % of control | endpoint: mean survival time, dose: 2.0 mg/kg/injection, schedule: Q04DX003 (ip), vehicle: water 123 % of control and 102 % of control | endpoint: mean survival time, dose: 2.5 mg/kg/injection, schedule: Q01DX001 (ip), vehicle: water 118 % of control and 123 % of control and 112 % of control | endpoint: mean survival time, dose: 2.5 mg/kg/injection, schedule: Q07DX Z (oral), vehicle: clinical formulation 97 % of control | endpoint: mean survival time, dose: 2.5 mg/kg/injection, schedule: Q#B X Z (oral), vehicle: clinical formulation 94 % of control | endpoint: mean survival time, dose: 3.0 mg/kg/injection, schedule: Q01DX009 (ip), vehicle: saline 117 % of control | endpoint: mean survival time, dose: 3.0 mg/kg/injection, schedule: Q04DX003 (ip), vehicle: saline 115 % of control | endpoint: mean survival time, dose: 3.13 mg/kg/injection, schedule: Q01DX009 (ip), vehicle: water 117 % of control and 96 % of control | endpoint: mean survival time, dose: 4.0 mg/kg/injection, schedule: Q01DX005 (ip), vehicle: water 120 % of control and 105 % of control | endpoint: mean survival time, dose: 4.0 mg/kg/injection, schedule: Q01DX007 (ip), vehicle: saline 110 % of control | endpoint: mean survival time, dose: 4.0 mg/kg/injection, schedule: Q03DX003 (ip), vehicle: saline 116 % of control | endpoint: mean survival time, dose: 4.0 mg/kg/injection, schedule: Q04DX003 (ip), vehicle: water 100 % of control | endpoint: mean survival time, dose: 4.67 mg/kg/injection, schedule: Q01DX009 (ip), vehicle: water 108 % of control | endpoint: mean survival time, dose: 5.0 mg/kg/injection, schedule: Q01DX001 (ip), vehicle: water 120 % of control and 104 % of control | endpoint: mean survival time, dose: 5.0 mg/kg/injection, schedule: Q04DX003 (ip), vehicle: saline 120 % of control | endpoint: mean survival time, dose: 5.0 mg/kg/injection, schedule: Q07DX Z (oral), vehicle: clinical formulation 97 % of control | endpoint: mean survival time, dose: 5.0 mg/kg/injection, schedule: Q#B X Z (oral), vehicle: clinical formulation 97 % of control | endpoint: mean survival time, dose: 6.25 mg/kg/injection, schedule: Q01DX009 (ip), vehicle: saline 97 % of control | endpoint: mean survival time, dose: 8.0 mg/kg/injection, schedule: Q01DX001 (ip), vehicle: water 109 % of control | endpoint: mean survival time, dose: 8.0 mg/kg/injection, schedule: Q01DX009 (ip), vehicle: saline 100 % of control | endpoint: mean survival time, dose: 8.0 mg/kg/injection, schedule: Q04DX003 (ip), vehicle: saline 119 % of control | endpoint: mean survival time, dose: 8.0 mg/kg/injection, schedule: Q04DX003 (ip), vehicle: water 123 % of control | endpoint: mean survival time, dose: 10.0 mg/kg/injection, schedule: Q01DX001 (ip), vehicle: water 118 % of control and 112 % of control | endpoint: mean survival time, dose: 10.0 mg/kg/injection, schedule: Q07DX Z (oral), vehicle: clinical formulation 102 % of control | endpoint: mean survival time, dose: 10.0 mg/kg/injection, schedule: Q#B X Z (oral), vehicle: clinical formulation 108 % of control | endpoint: mean survival time, dose: 20.0 mg/kg/injection, schedule: Q01DX001 (ip), vehicle: water 89 % of control and 96 % of control | endpoint: mean survival time, dose: 20.0 mg/kg/injection, schedule: Q07DX Z (oral), vehicle: clinical formulation 100 % of control | endpoint: mean survival time, dose: 20.0 mg/kg/injection, schedule: Q#B X Z (oral), vehicle: clinical formulation 94 % of control | endpoint: mean survival time, dose: 40.0 mg/kg/injection, schedule: Q01DX001 (ip), vehicle: saline 62 % of control | endpoint: mean survival time, dose: 40.0 mg/kg/injection, schedule: Q07DX Z (oral), vehicle: clinical formulation 103 % of control | endpoint: mean survival time, dose: 40.0 mg/kg/injection, schedule: Q#B X Z (oral), vehicle: clinical formulation 103 % of control | endpoint: mean survival time, dose: 39.0 micrograms/kg/injection, schedule: Q01DX010 (oral), vehicle: saline 102 % of control | endpoint: mean survival time, dose: 78.0 micrograms/kg/injection, schedule: Q01DX010 (oral), vehicle: saline 102 % of control | endpoint: mean survival time, dose: 156.0 micrograms/kg/injection, schedule: Q01DX010 (oral), vehicle: saline 98 % of control | endpoint: mean survival time, dose: 313.0 micrograms/kg/injection, schedule: Q01DX010 (oral), vehicle: saline 102 % of control | endpoint: mean survival time, dose: 625.0 micrograms/kg/injection, schedule: Q01DX010 (oral), vehicle: saline 104 % of control | endpoint: mean survival time, dose: 1250.0 micrograms/kg/injection, schedule: Q01DX010 (oral), vehicle: saline 101 % of control | endpoint: median survival time, dose: 0.25 mg/kg/injection, schedule: Q01DX005 (iv), vehicle: water 112 % of control | endpoint: median survival time, dose: 0.5 mg/kg/injection, schedule: Q01DX005 (iv), vehicle: water 100 % of control | endpoint: median survival time, dose: 0.5 mg/kg/injection, schedule: Q04DX003 (ip), vehicle: water 99 % of control | endpoint: median survival time, dose: 1.0 mg/kg/injection, schedule: Q01DX005 (iv), vehicle: water 106 % of control | endpoint: median survival time, dose: 1.0 mg/kg/injection, schedule: Q04DX003 (ip), vehicle: water 99 % of control | endpoint: median survival time, dose: 2.0 mg/kg/injection, schedule: Q01DX005 (iv), vehicle: water 112 % of control | endpoint: median survival time, dose: 2.0 mg/kg/injection, schedule: Q04DX003 (ip), vehicle: water 100 % of control | endpoint: median survival time, dose: 4.0 mg/kg/injection, schedule: Q04DX003 (ip), vehicle: water 107 % of control | endpoint: median survival time, dose: 16.0 mg/kg/injection, schedule: Q04DX003 (ip), vehicle: water 109 % of control

C=C(C)CSC(=S)NNc1ccccc1
inactive: endpoint: mean survival time, dose: 25.0 mg/kg/injection, schedule: Q01DX009 (ip), vehicle: acetone 93 % of control | endpoint: mean survival time, dose: 50.0 mg/kg/injection, schedule: Q01DX009 (ip), vehicle: acetone 96 % of control | endpoint: mean survival time, dose: 100.0 mg/kg/injection, schedule: Q01DX009 (ip), vehicle: acetone 102 % of control

C=CCNC(=O)/C(=C\c1ccccc1)NC(C)=O
inactive: endpoint: mean survival time, dose: 100.0 mg/kg/injection, schedule: Q01DX009 (ip), vehicle: saline with Tween-80 96 % of control | endpoint: mean survival time, dose: 100.0 mg/kg/injection, schedule: Q04DX003 (ip), vehicle: saline with Tween-80 98 % of control | endpoint: mean survival time, dose: 200.0 mg/kg/injection, schedule: Q01DX009 (ip), vehicle: saline with Tween-80 98 % of control | endpoint: mean survival time, dose: 200.0 mg/kg/injection, schedule: Q04DX003 (ip), vehicle: saline with Tween-80 100 % of control | endpoint: mean survival time, dose: 400.0 mg/kg/injection, schedule: Q01DX009 (ip), vehicle: saline with Tween-80 95 % of control | endpoint: mean survival time, dose: 400.0 mg/kg/injection, schedule: Q04DX003 (ip), vehicle: saline with Tween-80 100 % of control

c1ccc(-c2ccccc2NC2=NCCO2)cc1
inactive: endpoint: mean survival time, dose: 12.5 mg/kg/injection, schedule: Q04DX003 (ip), vehicle: saline 94 % of control | endpoint: mean survival time, dose: 25.0 mg/kg/injection, schedule: Q04DX003 (ip), vehicle: saline 94 % of control | endpoint: mean survival time, dose: 50.0 mg/kg/injection, schedule: Q04DX003 (ip), vehicle: saline 90 % of control

CC12CCC(C(CO)C1=O)C2(C)C (centres undefined)
inactive: endpoint: mean survival time, dose: 75.0 mg/kg/injection, schedule: Q01DX001 (ip), vehicle: saline 98 % of control | endpoint: mean survival time, dose: 150.0 mg/kg/injection, schedule: Q01DX001 (ip), vehicle: saline 98 % of control | endpoint: mean survival time, dose: 300.0 mg/kg/injection, schedule: Q01DX001 (ip), vehicle: saline 98 % of control
